{
  "source": "patent US20260232572A1",
  "about": "“INJECTABLE COMPOSITION, PHARMACEUTICAL FORMULATION INCLUDING THE SAME, AND METHOD FOR PREPARING THE COMPOSITION” (ONCONIC THERAPEUTICS INC., priority 2023, published 2026)",
  "key": {"[1]": {"assay": "Bioavailability on oral administration, citrate of Compound 1 compared to free base", "format": "in vivo", "settings": "orally administered"}, "[2]": {"assay": "Solubility of citrate of Compound 1 depending on pH", "format": "physicochemical"}},
  "note": "Read-outs that look alike come from different tables or passages of the source.",
  "data": [
    {"smiles": "Cc1cccc(C)c1CNc1cc(C(=O)N2CCC2)cn2c(C)c(C)nc12.O=C(O)CC(O)(CC(=O)O)C(=O)O", "note": "[citrate of Compound 1, azetidin-1-yl{8-[(2,6-dimethylbenzyl)amino]-2,3-dimethylimidazo[1,2-a]pyridin-6-yl}methanone citrate]", "values": [
      {"measurement": "AUC compared to Compound 1 free base", "setting": "[1]", "value": "at least five"},
      {"measurement": "Cmax compared to Compound 1 free base", "setting": "[1]", "value": "≥ 11", "unit": "times"},
      {"measurement": "time to reach highest blood concentration", "setting": "[1]; compared to Compound 1 free base", "value": "within a short time compared to Compound 1"},
      {"measurement": "solubility", "setting": "[2]; aqueous buffer, pH 3 or higher, particularly pH 3.3 or higher, read-out: solubility", "value": "< 1500", "unit": "µg/mL"},
      {"measurement": "solubility", "setting": "[2]; below pH 3", "value": "very excellent solubility"},
      {"measurement": "solubility", "setting": "[2]; pH 3 to 4.7, due to SBE-β-CD", "value": "excellent solubility"}
    ]}
  ]
}
